The record followed here is PubChem BioAssay AID330 (DTP/NCI, 2004).

In this assay the test system is P388 leukemia ip, CD2F1 mice, survival T/C. In words: NCI In Vivo Anticancer Drug Screen. Data for tumor model P388 Leukemia (intraperitoneal) in CD2F1 (CDF1) mice. The note with it: endpoint: median survival time, higher = longer survival. Summed up: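 Mice carrying the transplanted tumor received test compound or vehicle. Survival was recorded in each group, and the value is the treated-group measurement divided by that of the vehicle-treated control group.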

[1] abbreviates: dose: 60.0 mg/kg/injection, schedule: Q01DX005 (ip), vehicle: saline with Tween-80.
Where [2] appears, read: dose: 120.0 mg/kg/injection, schedule: Q01DX005 (ip), vehicle: saline with Tween-80.
The mark [3] stands for this setting: dose: 50.0 mg/kg/injection, schedule: Q01DX005 (ip), vehicle: saline with Tween-80.
Where [4] appears, read: dose: 100.0 mg/kg/injection, schedule: Q01DX005 (ip), vehicle: saline with Tween-80.
Where [5] appears, read: dose: 200.0 mg/kg/injection, schedule: Q01DX005 (ip), vehicle: saline with Tween-80.
Setting [6] is: dose: 50.0 mg/kg/injection, schedule: Q01DX005 (ip), vehicle: saline.
[7] abbreviates: dose: 100.0 mg/kg/injection, schedule: Q01DX005 (ip), vehicle: saline.
The mark [8] stands for this setting: dose: 200.0 mg/kg/injection, schedule: Q01DX005 (ip), vehicle: saline.
The mark [9] stands for this setting: dose: 100.0 mg/kg/injection, schedule: Q01DX001 (ip), vehicle: saline with Tween-80.
The mark [10] stands for this setting: dose: 200.0 mg/kg/injection, schedule: Q01DX001 (ip), vehicle: saline with Tween-80.
Setting [11] is: dose: 400.0 mg/kg/injection, schedule: Q01DX001 (ip), vehicle: saline with Tween-80.

Values joined by “and” are separate entries in the source; they are usually repeats but may differ in a detail not shown here. Identical values can stand only once. Inconclusive results and toxic doses are left out. Square brackets hold non-standard residues; d marks the D form. Peptide text beside a SMILES is read from it. ξ: configuration not given here. ξP = O=C(O)C1CCCN1

As for `COc1cccc2c1C(=O)c1c(O)c3c(c(O)c1C2=O)CC(O)(c1csc(N2CCN(C)CC2)n1)CC3O` (stereo unspecified), the T/C is 87 % of control (dose: 1.56 mg/kg/injection, schedule: Q01DX009 (ip), vehicle: water); 93 % of control (dose: 3.13 mg/kg/injection, schedule: Q01DX009 (ip), vehicle: water); 110 % of control (dose: 6.25 mg/kg/injection, schedule: Q01DX009 (ip), vehicle: water); 110 % of control (dose: 12.5 mg/kg/injection, schedule: Q01DX009 (ip), vehicle: water); 105 % of control and 116 % of control (dose: 25.0 mg/kg/injection, schedule: Q01DX009 (ip), vehicle: water); 102 % of control (dose: 50.0 mg/kg/injection, schedule: Q01DX009 (ip), vehicle: water). Moreover, the T/C (dose: 100.0 mg/kg/injection, schedule: Q01DX009 (ip), vehicle: water) is 107 % of control.

With `CC(C)(Br)C(=O)N1CCN(C(c2ccccc2)c2ccccc2)CC1`, the T/C under setting [1] was 92 % of control; the T/C under setting [2] is 91 % of control; the T/C (dose: 240.0 mg/kg/injection, schedule: Q01DX005 (ip), vehicle: saline with Tween-80) was 89 % of control.

For `CCCN1CCc2cc3c(cc2C1)OCO3`, the T/C by setting is: (dose: 60.0 mg/kg/injection, schedule: Q01DX005 (ip), vehicle: saline) 93 % of control; (dose: 120.0 mg/kg/injection, schedule: Q01DX005 (ip), vehicle: saline) 91 % of control.

On to `Nc1ccc(NS(=O)(=O)c2cccs2)c(O)c1`, for which the T/C is 97 % of control (dose: 50.0 mg/kg/injection, schedule: Q01DX009 (ip), vehicle: Klucel (hydroxypropylcellulose) (HPC)); 94 % of control (dose: 100.0 mg/kg/injection, schedule: Q01DX009 (ip), vehicle: Klucel (hydroxypropylcellulose) (HPC)); 105 % of control (dose: 200.0 mg/kg/injection, schedule: Q01DX009 (ip), vehicle: Klucel (hydroxypropylcellulose) (HPC)).

Turning to `FC(F)(F)c1nc(SCc2ccc(Cl)cc2)n[nH]1`, the T/C runs as follows: (dose: 30.0 mg/kg/injection, schedule: Q01DX005 (ip), vehicle: Klucel (hydroxypropylcellulose) (HPC)) 103 % of control; (dose: 60.0 mg/kg/injection, schedule: Q01DX005 (ip), vehicle: Klucel (hydroxypropylcellulose) (HPC)) 96 % of control; (dose: 120.0 mg/kg/injection, schedule: Q01DX005 (ip), vehicle: Klucel (hydroxypropylcellulose) (HPC)) 98 % of control; (dose: 240.0 mg/kg/injection, schedule: Q01DX005 (ip), vehicle: Klucel (hydroxypropylcellulose) (HPC)) 102 % of control.

As to `CCc1c2cc3c(cc2cc2c4cc5c(cc4cc[n+]12)OCO5)OCO3` (tested in a mixture with another compound), the T/C runs as follows: (dose: 0.5 mg/kg/injection, schedule: Q01DX009 (ip), vehicle: Klucel (hydroxypropylcellulose) (HPC)) 117 % of control; (dose: 1.0 mg/kg/injection, schedule: Q01DX009 (ip), vehicle: Klucel (hydroxypropylcellulose) (HPC)) 121 % of control; (dose: 5.0 mg/kg/injection, schedule: Q01DX009 (ip), vehicle: Klucel (hydroxypropylcellulose) (HPC)) 153 % of control and 174 % of control.

In the case of `N#CC(C#N)C(c1ccccc1)c1cccc2ccccc12` (stereo unspecified), the T/C is, setting by setting: (dose: 100.0 mg/kg/injection, schedule: Q01DX001 (ip), vehicle: Klucel (hydroxypropylcellulose) (HPC)) 101 % of control; (dose: 200.0 mg/kg/injection, schedule: Q01DX001 (ip), vehicle: Klucel (hydroxypropylcellulose) (HPC)) 109 % of control; (dose: 400.0 mg/kg/injection, schedule: Q01DX001 (ip), vehicle: Klucel (hydroxypropylcellulose) (HPC)) 104 % of control.

On to `C=Cc1ccccc1NC(C(=O)O)c1ccccc1` (stereo unspecified), for which the T/C runs as follows: under setting [3], 107 % of control; under setting [4], 106 % of control; under setting [5], 104 % of control.

As to `NCC(=O)N1CCCC1C(=O)NCC(=O)NCC(=O)O` (stereo unspecified) (H-G[ξP]GG-OH), the T/C reads like this: under setting [6], 101 % of control; under setting [7], 107 % of control; (dose: 100.0 mg/kg/injection, schedule: Q01DX005 (ip), vehicle: water) 105 % of control; under setting [8], 99 % of control; (dose: 200.0 mg/kg/injection, schedule: Q01DX005 (ip), vehicle: water) 107 % of control; (dose: 400.0 mg/kg/injection, schedule: Q01DX005 (ip), vehicle: water) 110 % of control.

Consider `CC1(C)CCCC2(C)C1CCC1(C)OC3=CC(=O)C(O)=CC3=CC12` (stereo unspecified), for which the T/C (dose: 6.25 mg/kg/injection, schedule: Q01DX009 (ip), vehicle: Klucel (hydroxypropylcellulose) (HPC)) was 100 % of control; the T/C (dose: 12.5 mg/kg/injection, schedule: Q01DX009 (ip), vehicle: Klucel (hydroxypropylcellulose) (HPC)) is 112 % of control; the T/C (dose: 25.0 mg/kg/injection, schedule: Q01DX009 (ip), vehicle: Klucel (hydroxypropylcellulose) (HPC)) was 119 % of control.

`CC1CN(Cc2ccccc2)CCC1N1CCCC1` (stereo unspecified): the T/C reads like this: under setting [3], 111 % of control; under setting [4], 107 % of control; under setting [5], 109 % of control.

As for `O=C(O)CNC(=O)C1(N2C(=O)c3ccccc3C2=O)CCCC1`, the T/C under setting [3] is 99 % of control, the T/C under setting [4] is 101 % of control and the T/C under setting [5] was 97 % of control.

With `O=c1[nH]c(=O)n(CC(O)CO)cc1/C=C/Br` (stereo unspecified), the T/C runs as follows: under setting [9], 106 % of control; under setting [10], 101 % of control; under setting [11], 100 % of control.

On to `NCCn1[nH]c(=O)c2cccnc2c1=O`, for which the T/C is, setting by setting: (dose: 100.0 mg/kg/injection, schedule: Q04DX002 (ip), vehicle: saline with Tween-80) 100 % of control; (dose: 200.0 mg/kg/injection, schedule: Q04DX002 (ip), vehicle: saline with Tween-80) 95 % of control; (dose: 400.0 mg/kg/injection, schedule: Q04DX002 (ip), vehicle: saline with Tween-80) 101 % of control.

On to `CCOC(=O)c1cnc(Sc2ncccc2[N+](=O)[O-])nc1N`, for which the T/C reads like this: (dose: 100.0 mg/kg/injection, schedule: Q04DX003 (ip), vehicle: saline) 95 % of control; (dose: 200.0 mg/kg/injection, schedule: Q04DX003 (ip), vehicle: saline) 98 % of control; (dose: 400.0 mg/kg/injection, schedule: Q04DX003 (ip), vehicle: saline) 92 % of control.

Consider `COc1ccc2ncc(COC(=O)NCCCl)c(COC(=O)NCCCl)c2c1`, for which the T/C by setting is: (dose: 25.0 mg/kg/injection, schedule: Q01DX005 (ip), vehicle: Klucel (hydroxypropylcellulose) (HPC)) 92 % of control; (dose: 50.0 mg/kg/injection, schedule: Q01DX005 (ip), vehicle: Klucel (hydroxypropylcellulose) (HPC)) 86 % of control; (dose: 100.0 mg/kg/injection, schedule: Q01DX005 (ip), vehicle: Klucel (hydroxypropylcellulose) (HPC)) 88 % of control; (dose: 200.0 mg/kg/injection, schedule: Q01DX005 (ip), vehicle: Klucel (hydroxypropylcellulose) (HPC)) 86 % of control.

In the case of `O=C(N/N=C/c1cc(Br)cc(Br)c1O)c1ccccc1`, the T/C runs as follows: under setting [9], 96 % of control; under setting [10], 96 % of control; under setting [11], 92 % of control.

On to `O=C(CCl)N/N=C(\c1ccccc1)c1ccc(Br)cc1`, for which the T/C reads like this: (dose: 45.0 mg/kg/injection, schedule: Q01DX009 (ip), vehicle: saline with Tween-80) 103 % of control; (dose: 90.0 mg/kg/injection, schedule: Q01DX009 (ip), vehicle: saline with Tween-80) 98 % of control; (dose: 180.0 mg/kg/injection, schedule: Q01DX009 (ip), vehicle: saline with Tween-80) 97 % of control.

`Cc1nc2[nH]ncc2c(=O)n1N`: the T/C is 97 % of control under setting [6], 108 % of control under setting [7] and 101 % of control under setting [8].

With `CCc1nc2ccccc2c(=O)n1C(C)C`, the T/C reads like this: (dose: 100.0 mg/kg/injection, schedule: Q04DX002 (ip), vehicle: saline) 100 % of control; (dose: 200.0 mg/kg/injection, schedule: Q04DX002 (ip), vehicle: saline) 106 % of control; (dose: 400.0 mg/kg/injection, schedule: Q04DX002 (ip), vehicle: saline) 104 % of control.

Regarding `COC(=O)c1nc(=S)[nH]c(C(=O)OC)c1C(=O)c1ccc(O)cc1O`, the T/C under setting [1] is 99 % of control and the T/C under setting [2] is 98 % of control.

Turning to `c1cn2cnnc2n2cnnc12`, the T/C reads like this: under setting [3], 100 % of control; under setting [4], 105 % of control; under setting [5], 97 % of control.

On to `CC1(C)C(N2CCOCC2)C(c2ccccc2)S1(=O)=O` (stereo unspecified), for which the T/C is 91 % of control (dose: 50.0 mg/kg/injection, schedule: Q01DX001 (ip), vehicle: saline with Tween-80); 100 % of control under setting [9]; 95 % of control under setting [10].
